Data set [1] is described as follows: bioavailability. As to conditions: attributed to the higher aqueous solubility.
The nature of data set [2]: aqueous solubility. It counts as physicochemical. The following applies: salt compared with the free acid.
Data set [3] is described as follows: stability of the salt. It counts as physicochemical.
Data set [4] in a line: hygroscopicity at high relative humidity. The following applies: even at relative humidities as high as 90 RH. In kind it is physicochemical.

Where a name gives a salt, the structure may show the parent alone.

In the case of `CCO[C@@H](Cc1ccc(OCCN2c3ccccc3Oc3ccccc32)cc1)C(=O)O` [(L)-Arginine salt, (L)-Arginine (2S)-2-Ethoxy-3-{4-[2-(10H-phenoxazin-10-yl)ethoxy]phenyl}propanoate], in data set [1], the bioavailability entry is given as “good bioavailability”. For the same compound, in data set [2], the “solubility in aqueous media” value was “significantly higher aqueous solubility”. For the same compound, the stability entry in data set [3] is on record as “highly stable”. Besides, the hygroscopicity entry in data set [4] is “not hygroscopic”.
In the case of `CCO[C@@H](Cc1ccc(OCCN2c3ccccc3Oc3ccccc32)cc1)C(=O)O` [(2S)-2-Ethoxy-3-{4-[2-(10H-phenoxazin-10-yl)ethoxy]phenyl}pr] [(2S)-2-Ethoxy-3-{4-[2-(10H-phenoxazin-10-yl)ethoxy]phenyl}propanoic acid], the “solubility in aqueous media” value in data set [2] is recorded as “sparingly soluble”.
